In patent US6465478B1 (dated 2002):
Structures can show the parent of a compound that is named as a salt.

Structure (SMILES)	melting point
NCCCN1CN(c2ccccc2)C2(CCN(C3(c4ccccc4)CCCCCC3)CC2)C1=O (as salt: HCl)	150 to 154 °C
CC1(N2CCC3(CC2)C(=O)NCN3c2ccccc2)CCC=CCC1 (as salt: hydrochloride)	251 to 254 °C

The remaining lines, values ahead:

melting point	Structure (SMILES)
50 to 53 °C	CC1(N2CCC3(CC2)C(=O)N(CCN2CCCCC2)CN3c2ccccc2)CCCCCC1 (as salt: HCl)
216 to 220 °C	CC1(N2CCC3(CC2)C(=O)N(CCCN)CN3c2ccccc2)CCCCCC1 (as salt: HCl)
174 to 178 °C	O=C1N(CCN2CCCCC2)CN(c2ccccc2)C12CCN(C1(c3ccccc3)CCCCCC1)CC2 (as salt: HCl)
